From the supplement of paper PMC9780213

Columns and labels:
Details in all cases: treatment time: 24 h
U2OS = assay: cell count relative to DMSO control (panel A, nuclei/RNA/PMG/mitochondria stain) (fraction of control); higher = more cells (less toxicity)
Method: (§1)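 U2OS-derived cells in 384-well plates were treated for 24 h with a 7-point 2-fold dilution series (top dose 20 µM for most compounds; final max DMSO 1%), then fixed, stained in four marker panels and imaged on a Cellomics ArrayScan. Cell count per treatment (three replicate plates merged) is given as a fraction of DMSO control. Panel A used parental U2OS, panel B U2OS-mOrange2-Peroxisome, panel C1 U2OS-LMNB1-TUBA1B-ACTB (DRAQ5 nuclei).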

U2OS-LMNB1-TUBA1B-ACTB = assay: cell count relative to DMSO control (panel C1, DRAQ5/ER stain) (fraction of control); higher = more cells (less toxicity)
Method: as §1

U2OS-mOrange2-Peroxisome = assay: cell count relative to DMSO control (panel B, lysosome/peroxisome/lipid stain) (fraction of control); higher = more cells (less toxicity)
Method: as §1

SMILES | cell count (U2OS; 0.3125 µM) | cell count (U2OS; 0.625 µM) | cell count (U2OS; 1.25 µM) | cell count (U2OS; 2.5 µM) | cell count (U2OS; 5 µM) | cell count (U2OS; 10 µM) | cell count (U2OS; 20 µM) | cell count (U2OS-LMNB1-TUBA1B-ACTB; 0.3125 µM) | cell count (U2OS-LMNB1-TUBA1B-ACTB; 0.625 µM) | cell count (U2OS-LMNB1-TUBA1B-ACTB; 1.25 µM) | cell count (U2OS-LMNB1-TUBA1B-ACTB; 2.5 µM) | cell count (U2OS-LMNB1-TUBA1B-ACTB; 5 µM) | cell count (U2OS-LMNB1-TUBA1B-ACTB; 10 µM) | cell count (U2OS-LMNB1-TUBA1B-ACTB; 20 µM) | cell count (U2OS-mOrange2-Peroxisome; 0.3125 µM) | cell count (U2OS-mOrange2-Peroxisome; 0.625 µM) | cell count (U2OS-mOrange2-Peroxisome; 1.25 µM) | cell count (U2OS-mOrange2-Peroxisome; 2.5 µM) | cell count (U2OS-mOrange2-Peroxisome; 5 µM) | cell count (U2OS-mOrange2-Peroxisome; 10 µM) | cell count (U2OS-mOrange2-Peroxisome; 20 µM) | cell count (U2OS; 0.07812 µM) | cell count (U2OS; 0.15625 µM) | cell count (U2OS-LMNB1-TUBA1B-ACTB; 0.07812 µM) | cell count (U2OS-LMNB1-TUBA1B-ACTB; 0.15625 µM) | cell count (U2OS-mOrange2-Peroxisome; 0.07812 µM) | cell count (U2OS-mOrange2-Peroxisome; 0.15625 µM)
COc1ccc2cc1Oc1ccc(cc1)C[C@H]1c3cc(c(OC)cc3CCN1C)Oc1c(OC)c(OC)cc3c1[C@H](C2)N(C)CC3 [tetrandrine] | 0.949 | 1 | 1.01 | 0.97 | 0.905 | 0.781 | 0.631 | 1.04 | 1.06 | 1.06 | 1.05 | 0.976 | 0.796 | 0.639 | 0.838 | 0.86 | 0.958 | 0.976 | 0.895 | 0.827 | 0.488 |  |  |  |  |  | 
COc1cccc2c1C(=O)c1c(O)c3c(c(O)c1C2=O)C[C@@](O)(C(C)=O)C[C@@H]3O[C@H]1C[C@H](N)[C@H](O)[C@H](C)O1 [daunorubicin] | 0.96 | 0.829 | 0.457 | 0.376 | 0.183 |  |  | 1.02 | 0.912 | 0.645 | 0.613 | 0.472 |  |  | 0.527 | 0.605 | 0.618 | 0.398 | 0.152 |  |  | 0.92 | 0.928 | 0.953 | 0.99 | 0.537 | 0.529
Nc1c2ccccc2nc2ccccc12 [9-aminoacridine] | 1.08 | 1.12 | 1 | 0.751 | 0.383 | 0.226 | 0.254 | 1.11 | 1.05 | 1.12 | 0.826 | 0.239 | 0.0589 | 0.0515 | 1.12 | 0.733 | 0.6 | 0.346 | 0.104 | 0.0699 | 0.0813 |  |  |  |  |  | 
CC(C=CC(=O)NO)=C[C@@H](C)C(=O)c1ccc(N(C)C)cc1 [trichostatin-a] | 0.888 | 0.737 | 0.497 | 0.466 | 0.427 | 0.258 | 0.142 | 1.04 | 0.942 | 0.773 | 0.619 | 0.639 | 0.517 | 0.314 | 0.582 | 0.501 | 0.516 | 0.585 | 0.605 | 0.228 | 0.0857 |  |  |  |  |  | 
CCc1c2c(nc3ccc(OC(=O)N4CCC(N5CCCCC5)CC4)cc13)-c1cc3c(c(=O)n1C2)COC(=O)[C@]3(O)CC [irinotecan] | 0.95 | 0.795 | 0.732 | 0.665 | 0.64 | 0.592 | 0.612 | 0.966 | 0.998 | 0.849 | 0.82 | 0.79 | 0.694 | 0.66 | 0.759 | 0.66 | 0.641 | 0.621 | 0.666 | 0.771 | 0.742 |  |  |  |  |  | 
Cc1ccc(S(=O)(=O)c2ccc([N+](=O)[O-])o2)cc1 | 0.974 | 1.04 | 1.05 | 1.01 | 0.917 | 0.886 |  | 1.1 | 1.02 | 1.12 | 1.1 | 1.02 | 0.982 |  | 0.934 | 0.938 | 0.864 | 1.16 | 0.964 | 0.837 |  |  | 1.02 |  | 1.01 |  | 0.927
CC(=O)N[C@@H](CC(C)C)C(=O)N[C@@H](CC(C)C)C(=O)N[C@H](C=O)CCCN=C(N)N [leupeptin] | 1.07 | 1.09 | 0.933 | 1.09 | 1.04 | 1.03 | 1.01 | 1.07 | 1.1 | 1.06 | 1.16 | 1.05 | 1.02 | 1.01 | 0.839 | 0.806 | 0.749 | 0.771 | 0.895 | 0.952 | 1.27 |  |  |  |  |  | 
NCCCCC(N)C(=O)NC(CCCCN)C(=O)NC(Cc1c[nH]c2ccccc12)C(=O)NC(Cc1c[nH]c2ccccc12)C(=O)NC(CCCCN)C(=O)NC(CCCCN)C(=O)NC(Cc1c[nH]c2ccccc12)C(=O)NC(C(=O)NC(CCCCN)C(N)=O)C(c1ccccc1)c1ccccc1 (stereo not drawn) [LTX-315] | 1.04 | 0.967 | 1.09 | 0.948 | 0.657 | 0.15 | 0.0373 | 1.13 | 1.1 | 1.08 | 1.05 | 0.842 | 0.47 | 0.0329 | 0.785 | 0.756 | 0.817 | 0.766 | 0.885 | 0.508 | 0.0593 |  |  |  |  |  | 
COc1ccc(C2CNC(=O)C2)cc1OC1CCCC1 (stereo not drawn) [rolipram] | 1.04 | 1.07 | 0.964 | 0.96 | 0.915 | 1 | 0.959 | 0.979 | 1.14 | 0.963 | 1.03 | 1.01 | 1.02 | 1.01 | 0.884 | 0.894 | 1 | 0.96 | 1.13 | 0.726 | 1 |  |  |  |  |  | 
CNCCCN1c2ccccc2CCc2ccccc21 [desipramine] | 0.822 | 0.55 | 0.489 | 0.481 | 0.379 | 0.243 | 0.189 | 0.972 | 0.817 | 0.772 | 0.652 | 0.595 | 0.32 | 0.333 | 0.62 | 0.64 | 0.617 | 0.571 | 0.15 | 0.115 | 0.0511 |  |  |  |  |  | 
CN1CCC(c2c(O)cc(O)c3c(=O)cc(-c4ccccc4Cl)oc23)[C@@H](O)C1 (stereo partly drawn) [alvocidib] | 0.804 | 0.575 | 0.44 | 0.221 | 0.142 | 0.14 | 0.153 | 0.864 | 0.789 | 0.569 | 0.314 | 0.253 | 0.239 | 0.257 | 1.61 | 1.52 | 1.18 | 1.24 | 1.29 | 0.687 | 0.372 |  |  |  |  |  | 
COc1cc([C@@H]2c3cc4c(cc3[C@H](O)[C@H]3COC(=O)[C@@H]23)OCO4)cc(OC)c1OC [picropodophyllin] | 0.88 | 0.899 | 0.978 | 0.94 | 0.929 | 0.701 |  | 0.954 | 1.04 | 1.03 | 1.02 | 0.926 | 0.738 |  | 0.803 | 1.07 | 0.951 | 1.42 | 1.24 | 1.15 |  |  | 0.97 |  | 0.924 |  | 0.97
CC[C@@]1([C@@H]2O[C@@H]([C@H]3O[C@@](O)(CO)[C@H](C)C[C@@H]3C)C[C@@H]2C)CC[C@H]([C@]2(C)CC[C@]3(C[C@H](O)[C@@H](C)[C@@H]([C@@H](C)[C@@H](OC)[C@H](C)C(=O)O)O3)O2)O1 [monensin] | 0.746 | 0.606 | 0.504 | 0.422 | 0.375 | 0.339 | 0.332 | 0.932 | 0.699 | 0.642 | 0.412 | 0.421 | 0.406 | 0.418 | 0.691 | 0.713 | 0.78 | 0.617 | 0.617 | 0.641 | 0.633 |  |  |  |  |  | 
